Measured values published in US9738634B2, “Heterocyclic amide compound and herbicide” (SYNGENTA PARTICIPATIONS AG, priority 2013, dated 2017).

Legend:
Type in all cases: in vivo
Conditions in all cases: soil treatment, treatment dosage 80 g/ha
[1] = tested on: Italian ryegrass; assay: Test Example 3: weedkilling efficacy through soil treatment; I: Italian ryegrass
Outline: (§1)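 Crop and weed responses were judged three weeks after a uniform surface spray of the water-diluted emulsion at the given g/ha rate. Seeds sat beneath about 1.5 cm of sterilized diluvial soil, and boxes stood in a greenhouse at 25 to 30° C.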

[2] = tested on: black-grass; assay: Test Example 3: weedkilling efficacy through soil treatment; H: black-grass
Outline: as §1

[3] = tested on: common wind-grass; assay: Test Example 3: weedkilling efficacy through soil treatment; J: common wind-grass
From the text: (§2) Weedkilling Efficacy Test Through Soil Treatment
(§3) Sterilized diluvial soil was introduced into 21 cm long, 13 cm wide, 7 cm deep plastic boxes, and seeds of crabgrass, green foxtail, barnyard grass, wild oat, black-grass, Italian ryegrass, common wind-grass, Indian mallow, redroot pigweed, fig-leafed goosefoot, chickweed, catchweed, birds-eye speedwell, corn, soybean, rice, wheat, beet and rapeseed were each spot-sown, and covered with about 1.5 cm of soil. Next, emulsions of compounds of the present invention prepared according to compounding example 2 were diluted with water to give the specified dosages, and applied uniformly onto the soil surface with a small sprayer. The plants were grown by placing the plastic boxes in a greenhouse at 25 to 30° C., and 3 weeks after the pesticide treatment the effect on each type of plant was investigated on the basis of the assessment criteria of test example 1.
(§4) A: barnyard grass, B: bulrush, C: oval-leafed pondweed, D: crabgrass, E: green foxtail, F: barnyard grass, G: wild oat, H: black-grass, I: Italian ryegrass, J: common wind-grass, K: Indian mallow, L: redroot pigweed, M: fig-leafed goosefoot, N: chickweed, O: catchweed, p: birds-eye speedwell, a: transplanted rice, b: directly sown rice, c: corn, d: soybean, e: wheat, f: beet, g: rapeseed
(§5) Further, pesticide dosage (g/ha) indicates the concentration regulated such that treatment was with only the stated number of grams (g), when calculated per hectare (ha).

[4] = tested on: rapeseed; assay: Test Example 3: soil treatment, effect on crop; g: rapeseed
From the text: as §2, §3, §4, §5

[5] = tested on: wheat; assay: Test Example 3: soil treatment, effect on crop; e: wheat
Outline: as §1

| SMILES | I: Italian ryegrass, weedkilling efficacy grade [1] | H: black-grass, weedkilling efficacy grade [2] | J: common wind-grass, weedkilling efficacy grade [3] | g: rapeseed, effect on crop grade [4] | e: wheat, effect on crop grade [5] |
| --- | --- | --- | --- | --- | --- |
| CC(C)(C(=O)Nc1nc(C(F)(F)F)cs1)N1COCN(c2ccccc2)C1=O [A-1-06] | 5 (weed kill ratio 90% or more, (practically complete withering)) | 5 (weed kill ratio 90% or more, (practically complete withering)) | 5 (weed kill ratio 90% or more, (practically complete withering)) | 4 (weed kill ratio 70% or more, less than 90%) |  |
| CC(C)(C(=O)Nc1ccnc(Cl)n1)N1COCN(c2ccccc2)C1=O [A-1-20] | 5 (weed kill ratio 90% or more, (practically complete withering)) | 5 (weed kill ratio 90% or more, (practically complete withering)) | 5 (weed kill ratio 90% or more, (practically complete withering)) | 1 (weed kill ratio 5% or more, less than 20%) | 1 (weed kill ratio 5% or more, less than 20%) |
| CC(C)(C(=O)Nc1cc(Cl)nc(Cl)n1)N1COCN(c2ccccc2)C1=O [A-1-21] | 4 (weed kill ratio 70% or more, less than 90%) | 4 (weed kill ratio 70% or more, less than 90%) | 5 (weed kill ratio 90% or more, (practically complete withering)) | 0 (weed kill ratio 5% or less (practically no effect)) | 0 (weed kill ratio 5% or less (practically no effect)) |
